Test results: patent publication EP2313424B1, “ANIONIC PREGNANE COMPOUNDS, METHOD FOR THEIR PRODUCING AND USE OF THEM” (Ústav organické chemie a biochemie Akademie ved Ceské …, priority 2008, dated 2010)
Like-named read-outs stand apart in the source and are kept apart here.

Test system: NMDA receptor
Experiment: Whole-cell voltage-clamp recording of NMDA-induced currents in cultured hippocampal neurons
Type: cell-based, rats
Conditions: for IC50: estimated from relative inhibition at 100 µM steroid with the logistic equation, apparent Hill coefficient 1.2, 100 µM NMDA; for mean inhibitory effect on NMDA-induced currents: 100 µM steroid, responses elicited by 100 µM NMDA
[1] = relative degree of inhibition by 100 µM steroid of current responses induced by fast application of 100 µM NMDA, cultured hippocampal neurons, holding potential -60 mV
[2] = cultured hippocampal neurons, holding potential -60 mV

20-Oxo-5β-pregnane-3α,7α-diyl 3-Sulfate 7-Nicotinate Pyridinium Salt [Example 19]
IC50 (cultured hippocampal neurons): 116 µM
Inhibition (X) [1]: 46.9

CC(=O)O[C@@H]1C[C@@H]2C[C@H](OC(=O)CCC(=O)O)CC[C@]2(C)[C@H]2CC[C@]3(C)[C@@H](C(C)=O)CC[C@H]3[C@H]12 [Example 12, 20-Oxo-5β-pregnane-3α,7α-diyl 3-Hemisuccinate 7-Acetate]
IC50 (cultured hippocampal neurons): 300 µM
Inhibition (X) [1]: 21.4

pregnanolone sulfate [reference compound]
mean inhibitory effect on NMDA-induced currents [2]: 71.3 ± 5.0%
mean inhibitory effect on NMDA-induced currents (cultured hippocampal neurons, holding potential -60 mV, listed as 5β-pregnenolone sulfate): 71%

20-Oxo-5α-pregnane-3α,7α-diyl 3-Sulfate 7-Nicotinate Pyridinium Salt [Example 10]
IC50 (cultured hippocampal neurons): 154 µM
Inhibition (X) [1]: 37.8

CC(=O)O[C@@H]1C[C@H]2C[C@H](OC(=O)CCC(=O)O)CC[C@]2(C)[C@H]2CC[C@]3(C)[C@@H](C(C)=O)CC[C@H]3[C@H]12 [Example 3, 20-Oxo-5α-pregnane-3α,7α-diyl 3-Hemisuccinate 7-Acetate]
IC50 (cultured hippocampal neurons): 384 µM
Inhibition (X) [1]: 17.4

CC(=O)O[C@@H]1C[C@H]2C[C@H](OS(=O)(=O)[O-])CC[C@]2(C)[C@H]2CC[C@]3(C)[C@@H](C(C)=O)CC[C@H]3[C@H]12.[Na+] [Example 5, 20-Oxo-5α-pregnan-3α,7α-diyl 3-Sulfate 7-Acetate Sodium Salt]
mean inhibitory effect on NMDA-induced currents [2]: 17%

20-Oxo-5α-pregnane-3α,7α-diyl 3-Sulfate 7-Acetate Pyridinium Salt [Example 4]
Inhibition (X): 35.2
IC50 (cultured hippocampal neurons): 167 µM

20-Oxo-5β-pregnan-3α,7α-diyl 3-Sulfate 7-Acetate Pyridinium Salt [Example 13]
IC50 (cultured hippocampal neurons): 186 µM
Inhibition (X) [1]: 34.1
